Results on 6 compounds are retold here after patent publication EP0201420A1, “2-(2-Acetamido-2-deoxy-3-O-D-glucopyranosyl)-alkanoyl-aminoacyl-nor leucin glycopeptides or derivatives of these glycopeptides, and immunoadjuvant compositions containing them” (ANVAR Agence Nationale de Valorisation de la Recherche, priority 1985, dated 1986).

In the first assay the test system is globules rouges de mouton. In words: Immunosuppression test: high dose given before sheep red blood cells, haemolytic plaques of splenocytes counted (Cunningham method). To be noted: 1 mg per mouse 2 days before 10^8 sheep red blood cells; splenocytes taken 4 days after; experiment repeated 3 times. The class given is in vivo, souris. On the procedure: Dans l'expérience qui figure au tableau Ibis et qui a été répétéa 3 fois, le MDP et les autres substances ont été injectés à des souris à une dose 10 ou 20 fois plus élevée que d'habitude (1 mg) 2 jours avant l'injection de 10^8 globules rouges de mouton. Les splénocytes ont été pélevés et mis en culture 4 jours après l'injection de globules rouges de mouton et le nombre de plages hémolytiques dosées selon la méthode de Cunningham.
On to `CC(=O)N[C@H]1C(O)O[C@H](CO)[C@@H](O)[C@@H]1O[C@H](C)C(=O)N[C@@H](C)C(=O)N[C@H](CCC(=O)O)C(N)=O` (stereo partly drawn) [MDP, N-acétyl-muramyl-L-alanyl-D-isoglutamine], for which the “inhibition de la production d'anticorps (nombre de plages hémolytiques)” value was “inhibe totalement la production d'anticorps”.
For `CCCCOC(=O)[C@@H](CCC(N)=O)NC(=O)[C@H](C)NC(=O)[C@@H](C)O[C@H]1[C@H](O)[C@@H](CO)OC(O)[C@@H]1NC(C)=O` (stereo partly drawn) [murabutide], the “inhibition de la production d'anticorps (nombre de plages hémolytiques)” value is reported as “inhibe totalement la production d'anticorps”.

Another assay concerns réponse humorale de la souris swiss femelle à la sérumalbumine bovine. In words: Immunoadjuvant activity: humoral antibody response to bovine serum albumin, measured by passive haemagglutination. The class given is in vivo. Conditions: 100 µg per mouse s.c. with 0,5 mg bovine serum albumin in aqueous solution; primary response day 28, secondary response day 36. On the procedure:
L'activité immunoadjuvante a été étudiée en mettant en jeu la réponse humorale de la souris swiss femelle à la sérumalbumine bovine.
Des groupes de huit souris âgées de 2 mois reçoivent par voie sous-cutanée 0,5 mg de sérumalbumine bovine avec ou sans les substances à tester, à raison de 100 µg par souris. Les administrations sont faites en solution aqueuse.
Au jour 28, on effectue des prélèvements du sérum sanguin sur les souris traitées et la réponse primaire en anticorps est déterminée par hémagglutination passive en utilisant des hématies de moutons traitées à la formaline et recouvertes de l'antigène étudié selon la méthode décrite par A. A. HIRATA et M.V. BRANDISSE (5. immunol.100, 541 - 648, 1968). Au jour 30 les souris reçoivent une injection de rappel avec les antigènes seuls (100 µg par souris) et au jour 36 on mesure la réponse secondaire induite par la même technique de mesure .
Les résultats de ces essais figurent dans le tableau 1 qui suit. Ce tableau contient également les résultats mesurés dans les mêmes conditions chez les animaux témoins et chez des animaux qui ont été traités de la même manière avec le MDP à titre de substance de comparaison.
As for `CCCCOC(=O)[C@@H](CCCC)NC(=O)[C@H](C)NC(=O)[C@@H](C)O[C@H]1[C@H](O)[C@@H](CO)OC(O)[C@@H]1NC(C)=O` (stereo partly drawn) [compound 2], the activité immunoadjuvante entry is recorded as “une activité qui se rapproche sensiblement”.
Consider `CCCC[C@@H](NC(=O)[C@H](C)NC(=O)[C@@H](C)O[C@H]1[C@H](O)[C@@H](CO)OC(O)[C@@H]1NC(C)=O)C(N)=O` (stereo partly drawn) [compound 1], for which the activité immunoadjuvante entry was “n'a pas témoigné d'une activité spécifique”.
Consider `CCCCOC(=O)[C@@H](CCCC)NC(=O)[C@H](C)NC(=O)CO[C@H]1[C@H](O)[C@@H](CO)OC(O)[C@@H]1NC(C)=O` (stereo partly drawn) [compound 5], for which the activité immunoadjuvante entry is “une activité qui se rapproche sensiblement”.
Regarding `CCCC[C@@H](NC(=O)[C@H](C)NC(=O)[C@@H](C)O[C@H]1[C@H](O)[C@@H](CO)OC(O)[C@@H]1NC(C)=O)C(=O)OC` (stereo partly drawn) [compound 6], the activité immunoadjuvante entry was “une activité qui se rapproche sensiblement”.
